Marks after values point to notes of the source that are not given here.
Tests used:
[1] = Monkey PK study, liver and heart tissue levels; type: in vivo, cynomolgus monkey; conditions: for Mean Concentration at 4 hr Postdose, Liver / Liver/Heart Ratio / Mean Concentration at 4 hr Postdose, Heart: monkey; for Liver/Heart Ratio: 4 h; for Mean Concentration at 4 hr Postdose, Heart: footnoted values extrapolated below LLOQ
Excerpt: (§1) Monkey PK study. Male non-naïve cynomolgus monkeys were obtained from Hainan Jingang Laboratory Animal Co., Ltd. (Hainan, China), group housed during the 5-day acclimation period or individually housed during the study in stainless steel mesh cages, provided ad libitum access to RO water, fed twice daily (~120 g Certified Monkey Diet daily; Beijing Vital Keao Feed Co., Ltd., Beijing, China) and given daily treats of fresh fruit. Additional environmental enrichment included classical music and cartoons. Three groups of 5 monkeys each were administered 30, 100 or 300 mg/kg AT-527 as a powder filled in empty porcine hard gelatin capsules (size 0). The monkeys were fasted overnight prior to dosing and fed 4 h after dosing. Three dosages were selected to provide assessments of dose proportionality, the top two representing potential doses for a repeated oral dose toxicity study in monkeys, and the lowest predicted to be more therapeutically relevant. A pill gun was used to place the capsule beyond the root of the animals’ tongues and their mouths were held loosely closed for approximately 30 sec to allow them to move the jaw and swallow the capsule. Immediately following capsule administration, 20 mL of water was given by mouth and then the mouth was opened to ensure the capsule was swallowed. Blood samples (~0.6 mL) were collected up to 72 h from three animals per dose group, and up to 4 h from the remaining two animals in each group, at the same time points described for rats. […] Blood samples were collected with a syringe from a peripheral blood vessel from restrained, non-sedated animals, immediately transferred to pre-chilled tubes containing ~1 mg K2EDTA•2H20 and 20 μL of 5 mM dichlorvos solution, mixed and placed on ice until plasma was prepared by centrifugation as described for rats. Immediately after centrifugation, plasma samples were extracted with 4 volumes ISS2, and the supernatants were clarified by centrifugation (12,000 rpm, 10 min, 4°C) and stored at ≤ -60°C until analyzed by LC-MS/MS as described below. After the 4-hr blood collection, two monkeys per dose group were anesthetized with intravenous injection of pentobarbital sodium (60 mg/kg) and then euthanized as described for rats. […] All analytes were quantitated by LC-MS/MS as described below.
For the analysis of AT-9010 in rat tissue homogenate supernatant, aliquots were diluted 1:2 with water and injected onto an Agilent Zorbax Extend C18 5 μm, 2.1 × 50 mm column and a Sciex API 4000 mass spectrometer (ESI positive ion, MRM mode). Mobile phases A (0.001% ammonia and 0.18 mM DBAA in water (1:1, v/v) and B (10 mM dimethylhexylamine (DMHA) and 3 mM AA in 50% ACN in water) were used to elute samples (60 μL) at 0.7 mL/min with 2% B for 0.8 min followed by a linear gradient to 30% B over 0.4 min, isocratic elution at 30% B for 0.4 min, a linear gradient to 95% B over 0.4 min, and ending with 95% B for 0.4 min. The analysis of AT-9010 in monkey tissue homogenate supernatant was the same except the sample injection volume was 20 μL. Attempts to measure tissue levels of other potentially formed TPs, including 2,6-diaminopurine-2’-F-2’-C-methylribosyl-5’-triphosphate and 2-amino-6-methylaminopurine-2’-F-2’-C-methylribosyl-5’-triphosphate (M2-TP), also used this method.
For the analysis of M2 and M3 in monkey tissue homogenate supernatant, aliquots were diluted 1:3 with water and injected onto an Acuity HSS T3 1.8 μm, 2.1 × 50 mm column and a Sciex API 6500 mass spectrometer (ESI positive ion, MRM mode). Mobile phases A (0.3% FA and 10 mM AA in water and B (0.3% FA and 10 mM AA in 95% ACN in water) were used to elute samples (1 μL) at 0.6 mL/min with 0% B for 0.4 min followed by linear gradients to 30% B over 0.5 min and to 95% B over 0.2 min, ending with isocratic elution at 95% B for 0.4 min.

[2] = Rat pharmacokinetic study, plasma; type: in vivo, Sprague-Dawley rat; conditions: for plasma concentration, individual rats: AT-527 500 mg/kg oral, male 1-3, female 7-9, BQL: <0.0017 AT-511, <0.0022 M1, <0.0032 AT-273, M4
Monkey PK study, plasma = type: in vivo, cynomolgus monkey; conditions: for plasma concentration: male cynomolgus monkeys; for AUC(0-t) / Cmax / MRT last / Tmax: male, cynomolgus, cynomolgus monkey, in vivo, po
Excerpt: as §1
LC-MS/MS analysis of rat and monkey plasma and tissue homogenate supernatants. For the analysis of AT-511 in rat plasma, aliquots were extracted with 10 volumes ISS2. The supernatants were clarified by centrifugation (4000 rpm for 10 min at 4°C) and 3 μL samples were injected onto an Acuity BEH C18 1.7 μm, 2.1 × 50 mm column and a Sciex API 4000 mass spectrometer (ESI positive ion, MRM mode). Mobile phases A (0.025% formic acid (FA) and 1 mM ammonium acetate (AA) in 5% ACN in water) and B (0.025% FA and 1 mM AA in 95% ACN in water) were used to elute samples (3 μL) at 0.6 mL/min with 10% B for 0.3 min followed by linear gradients to 60% B over 0.6 min and to 90% B over 0.2 min, and ending with 90% B for 0.4 min.
PK data analysis. […] The linear/log trapezoidal rule was applied in obtaining the PK parameters.

[3] = Intracellular metabolism in human hepatocytes; type: in vitro ADME
Protocol: Hepatocytes. […] Cryopreserved male mouse (CD1), and fresh male Beagle dog and male cynomolgus monkey hepatocytes were obtained from BioreclamationIVT (Baltimore, MD) and were similarly plated with Matrigel in 6- or 24-well plates and maintained overnight in InVitroGRO™HI medium with Torpedo™ antibiotic (BioreclamationIVT). The protocol described above for measuring AT-511 and its metabolites in Huh-7 cells was repeated with the five different hepatocytes. Untreated cells were collected at 24 h, and the protein content of the cell lysates were determined using a bicinchoninic acid protein assay kit to assess the number of cells in each incubation. Separately, plated human hepatocytes were incubated for 6 h with 100 μM AT-511, followed by washout periods of 0, 2, 6, 18 and 30 h.
S3 Protocol. LC-MS/MS analysis of AT-511 and metabolites in cultured cells. The supernatant extracts of each hepatocyte and Huh-7 cell incubation were separately analyzed by four different LC-MS/MS methods for quantitation of phosphoramidates, nucleosides, monophosphates, and triphosphates (methods 1, 2, 3 and 4, respectively), using synthetic reference standards of actually and potentially present compounds and using structurally related analogs as internal standards. Briefly, a Luna PFP (2), 5 µm, 100 x 4.6 mm column and an AB Sciex API-6500 mass spectrometer (ESI positive ion, MRM mode) were used for methods 1-3 and an XBridge Oligonucleotide, BEH C18, 2.5 µm, 50 x 2.1 mm column and a Thermo QE Plus mass spectrometer (electrospray, negative ion mode) were used for method 4. For methods 1 and 2, mobile phases A (10 mM ammonium acetate in water) and B (acetonitrile:methanol, 1:1, v/v) were used to elute samples (5 µL) at 1 mL/min with 15% B for 1.5 min followed by a linear gradient to 75% B over 1 min (method 1) or with 54% B for 1.3 min followed by a linear gradient to 90% B over 1.2 min. Method 3 was the same except mobile phase A was 0.3% acetic acid in water, […] and samples were eluted with 3% B for 3 min followed by a linear gradient to 55% B over 1.2 min. For method 4, mobile phase A (3 mM ammonium formate with 10 mM dimethylhexylamine (DMHA) in water) and mobile phase B (3 mM ammonium formate with 10 mM DMHA in acetonitrile:water, 1:1, v/v) were used to elute samples at 0.4 mL/min with 0% B for 1.5 min followed by a linear gradient to 100% B over 2 min and ending with an isocratic elution for 0.5 min at 100% B.

[4] = both sexes, Sprague-Dawley, rat, in vivo, po, 500 mg/kg

CNc1nc(N)nc2c1ncn2[C@@H]1O[C@H](COP(=O)(O)O)[C@@H](O)[C@@]1(C)F [M2]
Mean Concentration at 4 hr Postdose, Liver ([1]; AT-527 30 mg/kg oral): 103 pmol/g
Liver/Heart Ratio ([1]; AT-527 30 mg/kg oral): 19^a
Mean Concentration at 4 hr Postdose, Heart ([1]; AT-527 30 mg/kg oral): 5.4^a pmol/g
Mean Concentration at 4 hr Postdose, Liver ([1]; AT-527 100 mg/kg oral): 479 pmol/g
Liver/Heart Ratio ([1]; AT-527 100 mg/kg oral): 48^a
Mean Concentration at 4 hr Postdose, Heart ([1]; AT-527 100 mg/kg oral): 9.9^a pmol/g
Mean Concentration at 4 hr Postdose, Liver ([1]; AT-527 300 mg/kg oral): 87.9 pmol/g
Liver/Heart Ratio ([1]; AT-527 300 mg/kg oral): 13^a
Mean Concentration at 4 hr Postdose, Heart ([1]; AT-527 300 mg/kg oral): 6.6^a pmol/g

CNc1nc(N)nc2c1ncn2[C@@H]1O[C@H](CO[P@@](=O)(N[C@@H](C)C(=O)OC(C)C)Oc2ccccc2)[C@@H](O)[C@@]1(C)F [AT-527]
unusual or adverse clinical signs ([2]; rats, single oral 500 mg/kg): no such signs noted
unusual or adverse clinical signs (Monkey PK study, plasma; monkeys, single oral 30, 100 or 300 mg/kg): no such signs noted

C[C@@]1(F)[C@H](O)[C@@H](COP(=O)(O)O)O[C@H]1n1cnc2c(=O)[nH]c(N)nc21 [M3]
Mean Concentration at 4 hr Postdose, Liver ([1]; AT-527 30 mg/kg oral): 78.8 pmol/g
Liver/Heart Ratio ([1]; AT-527 30 mg/kg oral): 11^a
Mean Concentration at 4 hr Postdose, Heart ([1]; AT-527 30 mg/kg oral): 7.5^a pmol/g
Mean Concentration at 4 hr Postdose, Liver ([1]; AT-527 100 mg/kg oral): 203 pmol/g
Liver/Heart Ratio ([1]; AT-527 100 mg/kg oral): 26^a
Mean Concentration at 4 hr Postdose, Heart ([1]; AT-527 100 mg/kg oral): 7.9^a pmol/g
Mean Concentration at 4 hr Postdose, Liver ([1]; AT-527 300 mg/kg oral): 1180 pmol/g
Liver/Heart Ratio ([1]; AT-527 300 mg/kg oral): 72
Mean Concentration at 4 hr Postdose, Heart ([1]; AT-527 300 mg/kg oral): 16.5 pmol/g

CNc1nc(N)nc2c1ncn2[C@@H]1O[C@H](COP(=O)(O)OP(=O)(O)OP(=O)(O)O)[C@@H](O)[C@@]1(C)F [5’-TP of M2, 2-amino-6-methylaminopurine-2’-F-2’-C-methylribosyl-5’-triphosphate]
intracellular detection [3]: not detected
concentration in liver and heart tissue ([1]; cynomolgus monkey, in vivo): < 110 pmol/g

CNc1nc(N)nc2c1ncn2[C@@H]1O[C@H](CO[P@](=O)(O)N[C@@H](C)C(=O)O)[C@@H](O)[C@@]1(C)F [M1]
plasma concentration, individual rats ([2]; 48.0 h): BQL
plasma concentration, individual rats ([2]; 72.0 h): BQL
AUC(0-t) [2, 4]: 77.9 ± 20.3 µM·h
Cmax [2, 4]: 40.8 ± 9.7 µM
MRT last [2, 4]: 2.54 ± 0.41 h
Tmax [2, 4]: 0.58 ± 0.14 h
plasma concentration (Monkey PK study, plasma; single oral AT-527 30 mg/kg, 0.500 h, monkey 1): BQL
plasma concentration (Monkey PK study, plasma; single oral AT-527 30 mg/kg, 48.0 h, monkey 1): BQL
plasma concentration (Monkey PK study, plasma; single oral AT-527 30 mg/kg, 48.0 h, monkey 2): BQL
plasma concentration (Monkey PK study, plasma; single oral AT-527 30 mg/kg, 72.0 h, monkey 1): BQL
plasma concentration (Monkey PK study, plasma; single oral AT-527 30 mg/kg, 72.0 h, monkey 2): BQL
plasma concentration (Monkey PK study, plasma; single oral AT-527 30 mg/kg, 72.0 h, monkey 3): BQL
plasma concentration (Monkey PK study, plasma; single oral AT-527 100 mg/kg, 48.0 h, monkey 1): BQL
plasma concentration (Monkey PK study, plasma; single oral AT-527 100 mg/kg, 48.0 h, monkey 2): BQL
plasma concentration (Monkey PK study, plasma; single oral AT-527 100 mg/kg, 72.0 h, monkey 1): BQL
plasma concentration (Monkey PK study, plasma; single oral AT-527 100 mg/kg, 72.0 h, monkey 2): BQL
plasma concentration (Monkey PK study, plasma; single oral AT-527 100 mg/kg, 72.0 h, monkey 3): BQL
plasma concentration (Monkey PK study, plasma; single oral AT-527 300 mg/kg, 0.500 h, monkey 1): BQL
plasma concentration (Monkey PK study, plasma; single oral AT-527 300 mg/kg, 48.0 h, monkey 2): BQL
plasma concentration (Monkey PK study, plasma; single oral AT-527 300 mg/kg, 48.0 h, monkey 3): BQL
plasma concentration (Monkey PK study, plasma; single oral AT-527 300 mg/kg, 72.0 h, monkey 1): BQL
plasma concentration (Monkey PK study, plasma; single oral AT-527 300 mg/kg, 72.0 h, monkey 2): BQL
plasma concentration (Monkey PK study, plasma; single oral AT-527 300 mg/kg, 72.0 h, monkey 3): BQL
AUC(0-t) (Monkey PK study, plasma; 30 mg/kg): 5.44 ± 2.76 µM·h
Cmax (Monkey PK study, plasma; 30 mg/kg): 0.94 ± 0.61 µM
MRT last (Monkey PK study, plasma; 30 mg/kg): 7.06 ± 1.07 h
Tmax (Monkey PK study, plasma; 30 mg/kg): 4.67 ± 2.31 h
AUC(0-t) (Monkey PK study, plasma; 100 mg/kg): 25.5 ± 10.1 µM·h
Cmax (Monkey PK study, plasma; 100 mg/kg): 4.24 ± 2.84 µM
MRT last (Monkey PK study, plasma; 100 mg/kg): 7.22 ± 0.48 h
AUC(0-t) (Monkey PK study, plasma; 300 mg/kg): 35.6 ± 26.4 µM·h
Cmax (Monkey PK study, plasma; 300 mg/kg): 4.44 ± 4.74 µM
MRT last (Monkey PK study, plasma; 300 mg/kg): 11.4 ± 3.6 h
Tmax (Monkey PK study, plasma; 300 mg/kg): 4.67 ± 1.16 h
Liver/Heart Ratio ([1]; AT-527 30 mg/kg oral): 3.7
Liver/Heart Ratio ([1]; AT-527 100 mg/kg oral): 3.6
Liver/Heart Ratio ([1]; AT-527 300 mg/kg oral): 5.6

Reference: paper PMC6949113, “Preclinical evaluation of AT-527, a novel guanosine nucleotide prodrug with potent, pan-genotypic activity against hepatitis C virus” (PLoS ONE, 2020)
